Laboratory results as given in patent publication US7879893B2, “Ligands for the HisB10 Zn2 + sites of the R-state insulin hexamer” (Novo Nordisk A/S, priority 2001, dated 2011).
Residues, ends and D or L forms follow the SMILES beside them. *: point of attachment. X1 = O=C1NC(=O)/C(=C/c2cccc(OCC(=O)*)c2)S1; 4Abz = Nc1ccc(C(=O)O)cc1

Assay: Disappearance rate from the subcutaneous depot following subcutaneous injection in pigs (T50% of A14 Tyr(125I) insulin)
Format: in vivo, pig
Conditions: Asp^B28 human insulin, ligand added in concentrations lower than that of Zn2+, s.c.
Description: The slow release (prolonged action) properties of certain formulations of the present invention was characterized by the disappearance rate from the subcutaneous depot following subcutaneous injections in pigs. T50% is the time when 50% of the A14 Tyr(^125I) insulin has disappeared from the site of injection as measured with an external γ-counter (Ribel et al., The Pig as a Model for Subcutaneous Absorption in Man. In: M. Serrano-Rtios and P. J. Lefebre (Eds): Diabetes (1985) Proceedings of the 12th congress of the International Diabetes Federation, Madrid, Spain, 1985 (Excerpta Medica, Amsterdam (1986), 891-896). The composition of a series of protracted formulations is given in the table below together with the T50% values. The disappearance curves are illustrated in FIG. 3a-d. For comparison, the T50% for the corresponding insulin preparations formulated without the ligands would be about 2 hours.
The induction of slow release by addition of exogenous ligands of the invention affords further advantages in terms of versatility regarding the choice of insulin species and release patterns. Consequently, human or mutant insulins such as Asp^B28, Lys^B28Pro^B29, or Gly^A21Lys^B3Glu^B29 may be formulated as slow- or dual-release preparations by adding variable amounts of His^B10Zn^2+-site ligand. […]

Compound | release pattern of the formulation
N=C(N)NCCC[C@H](NC(=O)[C@H](CCCNC(=N)N)NC(=O)[C@H](CCCNC(=N)N)NC(=O)[C@H](CCCNC(=N)N)NC(=O)[C@H](CCCNC(=N)N)NC(=O)CNC(=O)CNC(=O)c1ccc(NC(=O)COc2cccc(/C=C3\SC(=O)NC3=O)c2)cc1)C(N)=O [TZD-Abz-G2R5, 4-{2-[3-(2,4-Dioxothiazolidin-5-ylidenemethyl)phenoxy]acetylamino}benzoyl-Gly2-Arg5-NH2] ({X1-4Abz}-GGRRRRR-NH2) | distinctly dual-release formulation

Same assay, conditions: Asp^B28 human insulin, ligand added in slight excess of the Zn2+ concentration, s.c.

Compound | T50%
N=C(N)NCCC[C@H](NC(=O)[C@H](CCCNC(=N)N)NC(=O)[C@H](CCCNC(=N)N)NC(=O)[C@H](CCCNC(=N)N)NC(=O)[C@H](CCCNC(=N)N)NC(=O)CNC(=O)CNC(=O)c1ccc(NC(=O)COc2cccc(/C=C3\SC(=O)NC3=O)c2)cc1)C(N)=O [TZD-Abz-G2R5, 4-{2-[3-(2,4-Dioxothiazolidin-5-ylidenemethyl)phenoxy]acetylamino}benzoyl-Gly2-Arg5-NH2] ({X1-4Abz}-GGRRRRR-NH2) | about 14.8

Assay: not given
Conditions: not given

Compound | melting point
COc1cccc(OC)c1/C=C1\SC(=O)NC1=O | 241 to 242 °C
CN(C)c1ccc(/C=C/C=C2\SC(=O)NC2=O)cc1 | 259 to 263 °C
CC(/C=C1\SC(=O)NC1=O)=C\c1ccccc1 | 203 to 210 °C
O=C1NC(=O)/C(=C/C(Cl)=C/c2ccccc2)S1 | 251 to 254 °C
c1cc(COc2ccc3ccccc3c2)cc(-c2nnn[nH]2)c1 | 200 to 202 °C

The remaining lines, values ahead:

melting point | Compound
256 °C | COc1cc(/C=C2\SC(=O)NC2=O)cc(I)c1O
310 to 314 °C | O=C1NC(=O)/C(=C/c2ccc3cc(O)ccc3c2)S1
330 to 333 °C | O=C1NC(=O)C(=Cc2c[nH]c3ccc([N+](=O)[O-])cc23)S1
152 to 154 °C | O=C1NC(=O)/C(=C/c2c(Cl)cccc2Cl)S1
331 to 333 °C | COc1cc(O)cc(OC)c1/C=C1\SC(=O)NC1=O
104 to 105 °C | Cc1cccc(C)c1/C=C1\SC(=O)NC1=O
265 to 266 °C | O=C1NC(=O)/C(=C/c2cc3ccccc3o2)S1
338 to 347 °C | O=C1NC(=O)/C(=C/c2cc3ccccc3[nH]c2=O)S1

Assay: not given
Conditions: inherent limitation, background statement; cited from earlier work

Compound | absorption half-life
soluble human insulin hexamer: "inherent limitation of the absorption half-life to about 4 hours for a soluble human insulin hexamer" | about 4 hours

Same assay, conditions: soluble preparations, background statement; cited from earlier work

Compound | absorption rate (time) after subcutaneous injection
Co^3+-hexamer: "absorption rates vary between about 1 hour (for rapid-acting insulin analogues ...) and about 4 hours (Co^3+-hexamer)" | about 4 hours
